Measured values taken from article PMC6881293, “Nanomolar-potency ‘co-potentiator’ therapy for cystic fibrosis caused by a defined subset of minimal function CFTR mutants” (Scientific Reports, 2019).

Key:
Q1313X-CFTR = biological target: T1, Q1313X-CFTR (Homo sapiens, UniProt P13569); assay: Short-circuit current in FRT cells expressing Q1313X-CFTR; assay type: cell-based
T1 construct: expressed in transfected cells
Description: As shown in Fig. 1C and summarized in Fig. 2, ASP-11 acted in synergy with VX-770 to increase chloride current in FRT cells expressing the NBD2 mutations I1234del- and Q1313X-CFTR by ~3–9-fold compared to VX-770. I1234del- and Q1313X-CFTR-expressing cells were also treated with VX-809 for 24 hours (to consider the effect of available CFTR therapeutics) with 2–3-fold greater currents observed.
Studies on FRT cells expressing Q1313X-CFTR produced similar data (Fig. 3C).
(§1) Figures 5C,D show data in N1303K- and Q1313X-expressing FRT cells.
(§2) Short-circuit current was measured on cells cultured on Snapwell clear permeable supports (Corning) as described[10],[11]. Hemichambers were connected to a DVC-1000 voltage clamp (World Precision Instruments Inc., Sarasota, FL) via Ag/AgCl electrodes and 3 M KCl agar bridges for recording of the short-circuit current. For human airway epithelial cells, symmetrical HCO3^−-buffered solutions (in mM: 120 NaCl, 5 KCl, 1 MgCl2, 1 CaCl2, 5 Hepes, 25 NaHCO3, 10 glucose, pH 7.4) for basolateral and apical side were used. For FRT cells, the basolateral membrane was permeabilized with 250 μg/ml amphotericin B, and experiments were done with a chloride gradient using a HCO3^−-buffered solutions (Basolateral (mM): 120 NaCl, 5 KCl, 1 MgCl2, 1 CaCl2, 5 Hepes, 25 NaHCO3, 10 glucose, pH 7.4; apical (mM): 60 NaCl, 60 mM sodium gluconate, 5 KCl, 1 MgCl2, 1 CaCl2, 5 Hepes, 25 NaHCO3, 10 glucose, pH 7.4). All cells were equilibrated with 95% O2, 5% CO2 and maintained at 37 °C during experiments.

N1303K-CFTR = biological target: T2, N1303K-CFTR (Homo sapiens, UniProt P13569, N1303K); assay: Short-circuit current in FRT cells expressing N1303K-CFTR; assay type: cell-based
T2 construct: expressed in transfected cells
Description: Based on prior studies[10],[11],[20], we hypothesized that distinct binding sites may be required to bind a potentiator and co-potentiator to rescue channel activity of CFTR mutants. We defined the potentiator VX-770 as a Class I compound, and co-potentiator ASP-11 as a Class II compound (Fig. 3A,D). Short-circuit current measurements in N1303K-CFTR-expressing FRT cells confirmed synergy when ASP-11 was added after VX-770 (Fig. 3Bi). […] In each experiment, CFTRinh-172 confirmed that current was from CFTR.
Figure 3 Definition of Class I and II CFTR potentiators. (A) Chemical structures of Class I and II potentiators. (B) Short-circuit current in FRT cells expressing N1303K-CFTR in response to forskolin and indicated potentiators. Concentrations: 20 μM forskolin, 5 μM VX-770, 20 μM ASP-11, 20 μM GLPG1837, 20 μM P2, 20 μM P3, 20 μM P5, 20 μM W1282Xpot-C01, and 10 μM CFTRinh-172. C. Short-circuit current in FRT cells expressing Q1313X-CFTR in response to forskolin and indicated potentiators. Concentrations: as in panel B, and 25 μM apigenin. (D) Summary of relative N1303K-CFTR activation in response to combinations of Class I and Class II potentiators. Mean ± S.E.M., n = 3. TEXT PRINTED IN THE PICTURE: (D) VX-770: N1303K-CFTR: P5: 1% ±1%; N1303K-CFTR: GLPG 1837: 10% ±5%; N1303K-CFTR: ASP-11: 100% ±3%; N1303K-CFTR: apigenin: 100% ±5% | (D) P5: N1303K-CFTR: VX-770: 1% ±1%; N1303K-CFTR: GLPG 1837: 2% ±2%; N1303K-CFTR: ASP-11: 52% ±5%; N1303K-CFTR: apigenin: 56% ±5% | (D) GLPG 1837: N1303K-CFTR: VX-770: 0% ±5%; N1303K-CFTR: P5: 2% ±2%; N1303K-CFTR: ASP-11: 100% ±4%; N1303K-CFTR: apigenin: 98% ±5% | (D) ASP-11: N1303K-CFTR: VX-770: 100% ±3%; N1303K-CFTR: P5: 47% ±4%; N1303K-CFTR: GLPG 1837: 100% ±5%; N1303K-CFTR: apigenin: 7% ±3% | (D) apigenin: N1303K-CFTR: VX-770: 100% ±5%; N1303K-CFTR: P5: 50% ±5%; N1303K-CFTR: GLPG 1837: 100% ±5%; N1303K-CFTR: ASP-11: 5% ±2% DOUBTS OF THE COPYIST ABOUT THIS PICTURE: Panel D is a matrix of pairs of substances (row substance combined with column substance). The picture prints no name for the measure, only % values and a 0%–100% colour scale. / The print in panel D is small, so 3, 5, 6 and 8 are hard to tell apart in these values. / VX-770 / GLPG 1837: ±5% could be ±3% / VX-770 / ASP-11: ±3% could be ±5% / VX-770 / apigenin: ±5% could be ±3% / P5 / ASP-11: 52% ±5%, digits uncertain / P5 / apigenin: 56% could be 58%, and ±5% is uncertain / GLPG 1837 / VX-770: 0% ±5%, error digit uncertain / GLPG 1837 / apigenin: 98% could be 96%, and ±5% is uncertain / ASP-11 / VX-770: ±3% could be ±5% / ASP-11 / GLPG 1837: ±5% could be ±3% / ASP-11 / apigenin: 7% ±3%, error digit uncertain / apigenin / VX-770: ±5% could be ±3% / apigenin / P5: 50% ±5%, digits uncertain / apigenin / GLPG 1837: ±5% could be ±3% / apigenin / ASP-11: 5% ±2%, the 5 is uncertain
as §1, §2

T2 sequence (P13569 whole entry N1303K): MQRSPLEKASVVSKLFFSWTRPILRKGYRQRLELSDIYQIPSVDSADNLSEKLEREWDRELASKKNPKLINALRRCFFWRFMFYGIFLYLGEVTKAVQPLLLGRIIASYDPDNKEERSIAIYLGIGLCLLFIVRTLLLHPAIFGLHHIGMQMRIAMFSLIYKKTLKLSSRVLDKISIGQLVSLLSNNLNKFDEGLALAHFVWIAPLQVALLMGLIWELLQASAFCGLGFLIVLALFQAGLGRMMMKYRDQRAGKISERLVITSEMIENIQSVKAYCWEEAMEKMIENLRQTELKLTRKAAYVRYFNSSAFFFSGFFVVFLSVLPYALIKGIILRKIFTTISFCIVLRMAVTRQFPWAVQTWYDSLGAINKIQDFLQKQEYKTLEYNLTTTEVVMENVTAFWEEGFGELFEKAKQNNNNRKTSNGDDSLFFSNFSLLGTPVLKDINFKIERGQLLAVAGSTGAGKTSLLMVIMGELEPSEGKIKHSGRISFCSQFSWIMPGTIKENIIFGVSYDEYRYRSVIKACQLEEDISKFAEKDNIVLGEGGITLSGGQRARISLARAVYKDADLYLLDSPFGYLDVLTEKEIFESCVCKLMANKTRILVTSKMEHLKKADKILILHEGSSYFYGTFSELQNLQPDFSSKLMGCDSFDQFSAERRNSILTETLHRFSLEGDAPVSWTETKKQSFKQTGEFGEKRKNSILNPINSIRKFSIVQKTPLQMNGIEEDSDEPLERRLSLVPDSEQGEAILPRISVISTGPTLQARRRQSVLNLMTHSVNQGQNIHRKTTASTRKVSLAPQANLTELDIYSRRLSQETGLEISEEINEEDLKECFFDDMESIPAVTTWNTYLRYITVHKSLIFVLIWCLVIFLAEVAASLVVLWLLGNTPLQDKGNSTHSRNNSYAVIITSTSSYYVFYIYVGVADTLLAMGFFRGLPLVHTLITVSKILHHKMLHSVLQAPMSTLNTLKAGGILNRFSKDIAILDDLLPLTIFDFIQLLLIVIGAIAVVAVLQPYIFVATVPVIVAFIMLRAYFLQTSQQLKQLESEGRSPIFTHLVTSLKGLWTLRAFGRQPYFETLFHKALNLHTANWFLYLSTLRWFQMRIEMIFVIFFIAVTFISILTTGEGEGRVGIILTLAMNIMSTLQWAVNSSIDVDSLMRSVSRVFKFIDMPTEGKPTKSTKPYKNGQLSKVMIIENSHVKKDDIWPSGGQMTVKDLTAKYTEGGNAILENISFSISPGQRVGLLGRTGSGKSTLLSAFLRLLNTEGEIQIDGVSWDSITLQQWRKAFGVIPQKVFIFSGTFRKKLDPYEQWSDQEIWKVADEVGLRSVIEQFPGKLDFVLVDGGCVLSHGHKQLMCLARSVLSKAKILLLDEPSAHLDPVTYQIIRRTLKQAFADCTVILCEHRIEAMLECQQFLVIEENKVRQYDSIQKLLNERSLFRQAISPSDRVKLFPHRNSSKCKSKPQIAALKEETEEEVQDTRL
T1 sequence (P13569 1-1312 limits assumed): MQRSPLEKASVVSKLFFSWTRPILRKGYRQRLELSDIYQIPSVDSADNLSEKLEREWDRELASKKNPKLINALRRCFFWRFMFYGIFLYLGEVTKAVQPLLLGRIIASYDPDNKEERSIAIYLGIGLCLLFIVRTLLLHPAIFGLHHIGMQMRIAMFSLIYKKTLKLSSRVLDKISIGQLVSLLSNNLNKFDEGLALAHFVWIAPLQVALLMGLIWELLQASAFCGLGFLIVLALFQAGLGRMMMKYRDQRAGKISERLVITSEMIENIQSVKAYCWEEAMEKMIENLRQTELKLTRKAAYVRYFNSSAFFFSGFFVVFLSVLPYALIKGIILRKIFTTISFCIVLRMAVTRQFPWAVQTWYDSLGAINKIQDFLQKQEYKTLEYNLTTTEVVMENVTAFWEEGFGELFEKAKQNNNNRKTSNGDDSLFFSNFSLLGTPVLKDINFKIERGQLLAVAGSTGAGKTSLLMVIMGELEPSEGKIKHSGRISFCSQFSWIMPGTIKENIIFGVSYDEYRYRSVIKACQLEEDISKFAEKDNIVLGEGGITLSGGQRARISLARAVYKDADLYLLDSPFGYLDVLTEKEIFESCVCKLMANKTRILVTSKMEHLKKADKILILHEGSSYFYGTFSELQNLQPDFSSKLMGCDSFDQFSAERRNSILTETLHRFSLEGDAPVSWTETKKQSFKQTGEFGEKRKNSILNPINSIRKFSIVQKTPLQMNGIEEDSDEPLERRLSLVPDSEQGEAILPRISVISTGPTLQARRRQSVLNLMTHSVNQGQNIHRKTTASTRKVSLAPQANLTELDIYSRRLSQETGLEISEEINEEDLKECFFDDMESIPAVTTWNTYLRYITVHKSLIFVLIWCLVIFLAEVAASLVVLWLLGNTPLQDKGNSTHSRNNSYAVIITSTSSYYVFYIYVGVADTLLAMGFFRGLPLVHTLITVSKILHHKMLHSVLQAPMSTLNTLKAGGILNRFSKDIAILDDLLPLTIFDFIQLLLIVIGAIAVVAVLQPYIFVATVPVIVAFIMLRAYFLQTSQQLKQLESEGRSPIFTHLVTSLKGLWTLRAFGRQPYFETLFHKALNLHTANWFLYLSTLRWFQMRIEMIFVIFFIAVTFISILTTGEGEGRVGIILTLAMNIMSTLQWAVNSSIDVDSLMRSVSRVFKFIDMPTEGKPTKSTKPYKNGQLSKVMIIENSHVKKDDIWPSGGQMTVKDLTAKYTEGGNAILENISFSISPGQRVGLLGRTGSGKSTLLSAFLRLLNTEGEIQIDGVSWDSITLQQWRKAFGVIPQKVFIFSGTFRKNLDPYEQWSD

Question: Which results are given for `CCCCn1cc(S(=O)(=O)Nc2ccc(CC)cc2)c2cccnc21` [ASP-11]?
Answer: increase in chloride current with ASP-11 plus VX-770 compared to VX-770 alone (Q1313X-CFTR; Q1313X-CFTR FRT cells, 20 µM forskolin, 5 µM VX-770, 20 µM ASP-11, range stated jointly for I1234del- and Q1313X-CFTR): 3–9 fold; activation by two Class II potentiators added together (N1303K-CFTR; N1303K-CFTR FRT cells, 20 μM W1282Xpot-C01 and 20 μM ASP-11, no Class I potentiator): little activation; short-circuit current response when added after VX-770 (N1303K-CFTR; N1303K-CFTR FRT cells, 20 μM forskolin, 5 μM VX-770, then 20 μM compound): synergy

Question: For `COc1ccc2[nH]c3c(c2c1)CCNC31CCN(Cc2ccc(F)cc2F)CC1` [Compound A061], which EC50 (Q1313X-CFTR; FRT cells expressing Q1313X-CFTR, after 20 µM forskolin and 5 µM VX-770) is on record?
Answer: Its EC50 is 5 µM.

Question: What about the EC50 (N1303K-CFTR; FRT cells expressing N1303K-CFTR, after 20 µM forskolin and 5 µM VX-770) of the same compound?
Answer: The EC50 was 2.9 µM.

Question: Which results are given for `CC(C)(C)c1cc(C(C)(C)C)c(NC(=O)c2c[nH]c3ccccc3c2=O)cc1O` [VX-770, ivacaftor]?
Answer: short-circuit current response when added after GLPG1837 (Q1313X-CFTR; Q1313X-CFTR FRT cells, 20 μM forskolin, 20 μM GLPG1837): reduced current; short-circuit current response when added after GLPG1837 (N1303K-CFTR; N1303K-CFTR FRT cells, 20 μM forskolin, 20 μM GLPG1837): mildly reduced current
